As usually defined, the IC50 is the midpoint of a concentration-inhibition curve.

The values that follow come from patent publication US10457687B2, “Aminoacid derivatives, a process for their preparation and pharmaceutical compositions containing them” (LES LABORATOIRES SERVIER, priority 2015, dated 2019).

Each structure is given as a SMILES string.

Chain of Mcl-1 protein (Q07820 whole entry): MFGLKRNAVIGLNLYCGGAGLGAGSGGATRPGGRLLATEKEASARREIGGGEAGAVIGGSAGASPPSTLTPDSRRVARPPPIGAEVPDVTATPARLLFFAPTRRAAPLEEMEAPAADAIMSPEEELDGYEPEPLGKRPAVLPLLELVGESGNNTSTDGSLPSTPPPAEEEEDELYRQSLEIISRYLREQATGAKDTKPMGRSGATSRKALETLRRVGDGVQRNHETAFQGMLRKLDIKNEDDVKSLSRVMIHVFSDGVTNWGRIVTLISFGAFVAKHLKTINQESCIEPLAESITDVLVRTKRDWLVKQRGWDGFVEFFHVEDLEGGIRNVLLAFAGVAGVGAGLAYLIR

The first assay has as its target Mcl-1 protein (Homo sapiens, UniProt Q07820). The assay is described as follows: Inhibition of Mcl-1 by the fluorescence polarisation technique (Method 1 or Method 2). It is filed as binding. The note with it: fluorescence polarisation, Fluorescein labelled ligand; Method 1 (not underlined) or Method 2 (underlined); read-out: IC50 (μM) Mcl-1 FP. The method, then:
The relative binding potency of each compound was determined via Fluorescence Polarisation (FP).
An 11 point serial dilution of each compound was prepared in DMSO and 2 μl transferred into flat bottomed, low binding, 384-well plate (final DMSO concentration 5%). 38 μl of buffer (10 mM 4-(2-hydroxyethyl)-1-piperazineethanesulfonic acid [HEPES], 150 mM NaCl, 0.05% Tween 20, pH 7.4), containing the Fluorescein labelled ligand (final concentration 1 nM) and Mcl-1 protein (final concentration 5 nM) was then added.
An 11 point serial dilution of each compound was prepared in DMSO and 2 μl transferred into flat bottomed, low binding, 384-well plate (final DMSO concentration 5%). 38 μl of buffer (20 mM Na2HPO4, 1 mM EDTA, 50 mM NaCl, pH 7.4), containing the Fluorescein labelled ligand (final concentration 10 nM) and Mcl-1 protein (final concentration 10 nM) was then added.
Regarding `CCc1sc2ncnc(N[C@@H](Cn3cccn3)C(=O)O)c2c1-c1cccc(Cl)c1C` (racemic) [Example 110, N-[5-(3-chloro-2-methylphenyl)-6-ethylthieno[2,3-d]pyrimidin-4-yl]-3-(1H-pyrazol-1-yl)alanine], the IC50 was determined as 0.839 µM.

Consider `CCc1sc2ncnc(N[C@H](Cc3ccccc3)C(=O)O)c2c1-c1cccc(O)c1C` [Example 67, N-[6-ethyl-5-(3-hydroxy-2-methylphenyl)thieno[2,3-d]pyrimidin-4-yl]-D-phenylalanine], for which the IC50 was 2.08 µM.

Consider `CCc1sc2ncnc(NC(Cc3ccccc3)C(=O)O)c2c1-c1cccc2c1c(Cl)cn2CCN1CCN(C)CC1` [Example 239, N-((5Ra)-5-{3-chloro-1-[2-(4-methylpiperazin-1-yl)ethyl]-1H-indol-4-yl}-6-ethyl-thieno[2,3-d]pyrimidin-4-yl)-D-phenylalanine], for which the IC50 stood at 20.3 µM.

Take `CCc1sc2ncnc(N[C@H](Cc3ccccc3C)C(=O)O)c2c1-c1cccc2ccccc12` (single isomer, unassigned) [Example 167, N-[6-ethyl-5-(naphthalen-1-yl)thieno[2,3-d]pyrimidin-4-yl]-2-methyl-D-phenylalanine]: the IC50 came out at 1.15 µM.

Turning to `O=C(O)[C@@H](Cc1ccccc1)Nc1ncnc2sc(C(F)F)c(-c3cccc4ccccc34)c12` (single isomer, unassigned) [Example 208, N-[6-(difluoromethyl)-5-(naphthalen-1-yl)thieno[2,3-d]pyrimidin-4-yl]-D-phenylalanine], the IC50 amounted to 0.632 µM.

With `CCc1sc2ncnc(N[C@H](Cc3cn(Cc4ccccc4)cn3)C(=O)O)c2c1-c1cccc2ccccc12` [Example 195, 1-benzyl-N-[6-ethyl-5-(naphthalen-1-yl)thieno[2,3-d]pyrimidin-4-yl]-D-histidine], the IC50 was 14.2 µM.

For `CCc1sc2ncnc(NC(Cc3ccccc3)C(=O)O)c2c1-c1cccc2c1c(Cl)cn2CCN1CCOCC1` [Example 236, N-((5Ra)-5-{3-chloro-1-[2-(morpholin-4-yl)ethyl]-1H-indol-4-yl}-6-ethyl-thieno[2,3-d]pyrimidin-4-yl)-D-phenylalanine], the IC50 is 13.5 µM.

`CCc1sc2ncnc(NC(Cc3cccnc3)C(=O)O)c2c1-c1cccc2ccccc12` [Example 163, N-[6-ethyl-(5Ra)-5-(naphthalen-1-yl)thieno[2,3-d]pyrimidin-4-yl]-3-pyridin-3-yl-D-alanine]: the IC50 was found to be 8.37 µM.

As for `CCc1sc2ncnc(N[C@H](Cc3ccncc3)C(=O)O)c2c1-c1cccc2ccccc12` [Example 193, N-[6-ethyl-5-(naphthalen-1-yl)thieno[2,3-d]pyrimidin-4-yl]-3-pyridin-4-yl-D-alanine], the IC50 is 36.5 µM.

The same assay, now with this note: partial inhibitors; @ 10 μM test compound.
For `CC#Cc1sc2ncnc(N[C@H](Cc3ccccc3OCc3ccnn3C(C)(C)C)C(=O)OCC)c2c1-c1ccc(OCCN2CCN(C)CC2)c(Cl)c1C` [Example 257, ethyl 2-[(1-tert-butyl-1H-pyrazol-5-yl)methoxy]-N-[(5Sa)-5-{3-chloro-2-methyl-4-[2-(4-methylpiperazin-1-yl)ethoxy]phenyl}-6-(prop-1-yn-1-yl)thieno[2,3-d]pyrimidin-4-yl]-D-phenylalaninate], the “percentage fluorescence polarisation inhibition, Mcl-1 FP” value stood at 57.15% @ 10 μM.

The same assay, now with this note: partial inhibitors; @ 50 μM test compound.
In the case of `CCc1sc2ncnc(NC(Cc3ccccc3OCCC3CCCC3)C(=O)O)c2c1-c1cccc(Cl)c1C` [Example 143, N-[(5Ra)-5-(3-chloro-2-methylphenyl)-6-ethylthieno[2,3-d]pyrimidin-4-yl]-2-(2-cyclopentylethoxy)-D-phenylalanine], the “percentage fluorescence polarisation inhibition, Mcl-1 FP” value worked out at 68.85% @ 50 μM.

Consider `CCc1sc2ncnc(N[C@H](Cc3ccccc3OCCCN(C)C)C(=O)O)c2c1-c1cccc(Cl)c1C` [Example 157, N-[(5Ra)-5-(3-chloro-2-methylphenyl)-6-ethylthieno[2,3-d]pyrimidin-4-yl]-2-[3-(dimethylamino)propoxy]-D-phenylalanine], for which the “percentage fluorescence polarisation inhibition, Mcl-1 FP” value turned out to be 62.05% @ 50 μM.
